# Experiments:
# [1] = biological target: neurotensin receptor sites; experiment: inhibition of [3H]neurotensin binding to guinea pig forebrain membranes
# Method: Binding assays are performed by studying the inhibition of [^3 H]neurotensin binding to guinea pig forebrain membranes. The following results are obtained, using the unlabelled acetyl compound […]-OH (SEQ ID NO:4) (a) as the reference.
# [2] = enzymatic stability in vitro in human serum; type: in vitro ADME
# Method: The enzymatic stability of the four radioiodinated analogues (1), (2), (3) and (4) is determined in vitro in human serum in a conventional manner, showing that this stability is sufficient.
# [3] = cited from earlier work
# [4] = test system: human brain neurotensin receptors; settings: cited from earlier work
# [5] = biological target: rat brain synaptic membranes; settings: binding on rat brain synaptic membranes; cited from earlier work
substance,measurement,setting,value
2-*I-benzoyl-^1 Arg-^2 Arg-^3 Pro-^4 Tyr-^5 Ile-^6 Leu-OH [(3)],pIC50,[1],8.07
same,enzymatic stability,[2],sufficient
(4*I-phenyl)acetyl-^1 Arg-^2 Arg-^3 Pro-^4 Tyr-^5 -Ile-^6 Leu-OH [(2)],pIC50,[1],7.87
same,enzymatic stability,[2],sufficient
"monoiodo-[Trp^11 ]-neurotensin (QLYENKPRRPWIL; Neurotensin 125I on Tyr3; UniProt P30990 151-163, looked up, variant Y11W) [monoiodo-[Trp11]-neurotensin, neurotensin analogue with tyrosine-11 replaced by tryptophan, mono-iodinated with 125-iodide on tyrosine-3]",in vivo half-life,[3],only a few minutes
same,affinity of neurotensin receptors in human brain,"[4]; preliminary experiments, Sadoul et al. 1984",low affinity
same,Kd,[5],100 pM
(2-*I-phenyl)acetyl-^1 Arg-^2 Arg-^3 Pro-^4 Tyr-^5 Ile-^6 Leu-OH [(1)],pIC50,[1],8.05
same,enzymatic stability,[2],sufficient
4-*I-benzoyl-^1 Arg-^2 Arg-^3 Pro-^4 Tyr-^5 Ile-^6 Leu-OH [(4)],pIC50,[1],8.10
same,enzymatic stability,[2],sufficient
mono-iodo derivative of neurotensin: mono-iodo derivative of neurotensin itself; only tyrosine-3 iodinated with 125-iodide,in vivo half-life,[3],only a few minutes
same,Kd,[4]; binding to human brain neurotensin receptors,260 pM
same,Kd,[5],200 pM
